According to patent US6121457A, “Compositions and methods using novel substituted imidazolium lipids” (Megabios Corporation, priority 1998, dated 2000):

Tests used:
CAT protein in lungs = assay: IV gene transfer in mice: lung CAT reporter expression (plasmid p4119) by ELISA; type: in vivo, ICR female mice; conditions: for mean CAT expression level (CAT ELISA): formulated with cholesterol and plasmid p4119, IV, five mice each, value followed by +/- spread
Procedure: This example provides an evaluation of the cationic lipid prepared in Example 1.
Two mice studies have been performed for the evaluation of cationic lipids of the present invention, in comparison with DOTIM (see, Liu, et al, Nature Biotechnology 15:167-173 (1997)). In brief, the lipid combinations were tested as carriers for gene transfer by intravenous delivery in ICR female mice (25 g), and expression was determined using the plasmid p4119 containing the CAT reporter gene under the control of the HCMV promoter. The lipids were dissolved in a mixture of chloroform and methanol (1:1). Lipid films of cationic and neutral lipid (either cholesterol or DLPE) at a 1:1 molar ratio were formed with a rotary evaporator. The films were hydrated with 5% dextrose in water (D5W) at room temperature and extruded through a series of membranes having pore sizes of 400 nm, 200 nm, and 50 nm.
DNA-liposome complexes were prepared at a 1:6 DNA:cationic lipid ratio (mg DNA per μmole cationic lipid) by adding the DNA, in a solution at 0.625 mg/mL concentration in D5W to the solution of liposomes, in an equal volume, with constant stirring, using a Hamilton Dilutor 540B (Hamilton, Reno, Nev.). DOTIM:cholesterol was used at a 1:6 DNA:cationic lipid ratio. The DNA solution was 0.3125 mg/mL DNA in D5W. The resulting complexes were sized using a Submicron Particle Sizer 370 (Nicomp, Santa Barbara, Calif.). Zeta potential was determined by a Zeta Plus, Zeta Potential Analyzer (Brookhaven Instruments Corp.). A total of 5 mice were tested per group. A dose of 62.5 μg p4119 plasmid DNA in 200 μL D5W was injected by tail vein per mouse. The lungs were harvested after 24 hours and assayed for CAT protein by ELISA assay. […] The upper organic phase was then transferred into scintillation vials containing 5 mL of Ready Safe Liquid Scintillation Cocktail (Beckman, Fullerton, Calif.). Samples were counted for 1 min each. […]

[1] = tested on: CAT reporter protein in lung and serum; assay: IV delivery in rabbits: CAT ELISA, lung and serum; type: in vivo; conditions: Rabbit #4, lipid only, highest vol. IV, about 24 h
Procedure: This example provides an evaluation of Compound 1 as a suitable lipid in DNA:lipid complexes for transfection in rabbits.
(§1) Pilot studies were conducted to assess the suitability of rabbits as a development model for delivery of lipid:DNA complexes. The study confirmed that rabbits offer the ability to express transfected genes as well as display some anticipated toxicity endpoints.
(§2) A 2 mL blood sample is collected immediately prior to dose delivery for serum collection and another 2 mL for a CBC/clinical chemistry screen. Sufficient blood is also collected at necropsy to perform a CBC and clinical chemistry screen and preserve serum (minimum of 8 mL).
(§3) Approximately 24 hours after dosing the animals are euthanized using a barbiturate overdose. Following euthanasia, body weights are determined and an examination is made for the presence of pleural fluid. Any fluid present is harvested while avoiding blood contamination. Total protein and albumin levels are determined on the pleural fluid.
(§4) Tissues are collected and preserved as follows: lung tissue (8 vials in liquid nitrogen, 2 lobes infused with formalin, and optionally 2 Whirlpaks® in dry ice); liver tissue (multiple sites in formalin); kidney tissue (multiple sites in formalin); spleen tissue (multiple sites in formalin); heart tissue (multiple sites in formalin); and multiple serum samples (6 mL minimum in dry ice).

[2] = IV toleration and necropsy observations in rabbits; type: in vivo, rabbit; conditions: just the lipid, about 24 h
Procedure: as §1, §2, §3, §4

| SMILES | lung CAT expression / in vivo activity, in words (CAT protein in lungs; IV, mice, both protocols) | mean CAT expression level (CAT ELISA) (CAT protein in lungs) [pg/mg] | CAT ELISA, lung [1] [pg/mg] | CAT ELISA, serum [1] [pg/mL] | airway foam or excessive pleural fluid [2] | lesions [2] | lung appearance at necropsy [2] |
| --- | --- | --- | --- | --- | --- | --- | --- |
| CCCCCCCC/C=C\CCCCCCCC[N+]1=C(CCCCCCC/C=C\CCCCCCCC)N(CCO)CC1 [Compound 1] | retained the in vivo activity of DOTIM | 306.09 | 0 | 0 | no airway foam or excessive pleural fluid was noted | No lesions were noted | diffusely red lungs which failed to collapse |
| CCCCCCCCCCCCCCCCCC[N+]1=C(CCCCCCCCCCCCCCCCC)N(CCO)CC1 [Formula III (Compound 2)] |  | 853.20 |  |  |  |  |  |
